The values below are quoted from earlier work in US20260297106A1, “SPIROCYCLIC SUBSTITUTED OXOISOINDOLINYL PIPERIDINE-2,6-DIONE COMPOUND” (Bristol-Myers Squibb Company, priority 2023, published 2026).

SMILES strings stand for the structures.

Data set [1] deals with highly immunogenic syngeneic tumors. Particulars: engineered mouse models; cited from earlier work.
In data set [2] the test system is T and NK cell. Particulars: preclinical and clinical studies; cited from earlier work.

On to `Nc1cccc2c1CN(C1CCC(=O)NC1=O)C2=O` (centres unmarked) [lenalidomide], for which the antitumor immune responses result in data set [1] is “modestly increase antitumor immune responses”. Moreover, in data set [2], the “T and NK cell functions” value is “augment T and NK cell functions”.
